Measurements published in patent US9938262B2, “Benzamides” (Merck Patent GmbH, priority 2011, dated 2018).

Molecular target: T1, FSHR (Homo sapiens, UniProt P23945)
T1 construct: expressed in transfected cells; host or cells: CHO (Cho-FSHR-LUC-1-1-43)
Assay: EC50 of cyclic AMP production in CHO FSHR cells + EC20 FSH (Assay A)
Assay type: cell-based
Settings: Table 2; for EC50: CHO FSHR cells + EC20 FSH, read-out: Assay A EC50 of cyclic AMP production
In short: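 cAMP HTRF ratio (665/620 nm) read after 1 h, 37 °C exposure of CHO-FSHR cells to compound in presence of EC20 FSH ([…]) and IBMX 200 μM. Responses given relative to FSH standard maximum; EC50 derived.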

T1 sequence (P23945 18-695): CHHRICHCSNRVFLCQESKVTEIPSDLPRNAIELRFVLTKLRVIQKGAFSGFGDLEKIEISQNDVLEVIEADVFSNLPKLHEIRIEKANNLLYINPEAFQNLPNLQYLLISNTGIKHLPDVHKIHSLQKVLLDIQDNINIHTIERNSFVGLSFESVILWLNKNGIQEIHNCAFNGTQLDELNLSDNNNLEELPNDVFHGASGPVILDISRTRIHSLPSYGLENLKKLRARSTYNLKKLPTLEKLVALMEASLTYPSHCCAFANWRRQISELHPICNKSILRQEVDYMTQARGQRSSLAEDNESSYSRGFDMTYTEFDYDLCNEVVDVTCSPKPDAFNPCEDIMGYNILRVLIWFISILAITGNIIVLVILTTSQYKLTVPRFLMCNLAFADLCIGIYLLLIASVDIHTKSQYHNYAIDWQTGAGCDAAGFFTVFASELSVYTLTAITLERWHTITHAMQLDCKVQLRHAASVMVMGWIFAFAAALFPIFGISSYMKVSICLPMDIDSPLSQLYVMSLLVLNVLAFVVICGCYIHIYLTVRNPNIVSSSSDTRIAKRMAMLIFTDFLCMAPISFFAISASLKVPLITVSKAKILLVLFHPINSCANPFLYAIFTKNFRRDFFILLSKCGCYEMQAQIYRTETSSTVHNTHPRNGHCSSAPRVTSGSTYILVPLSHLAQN
T1 sequence (P01215 25-116 partner): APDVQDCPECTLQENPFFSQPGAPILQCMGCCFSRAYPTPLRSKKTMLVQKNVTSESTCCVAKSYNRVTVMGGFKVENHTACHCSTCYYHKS
T1 sequence (P01225 19-129 partner): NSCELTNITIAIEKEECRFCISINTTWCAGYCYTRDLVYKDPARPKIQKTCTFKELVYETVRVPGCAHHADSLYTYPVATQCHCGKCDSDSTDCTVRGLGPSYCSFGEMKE

SMILES | EC50 | activation at 5 µM (1 h, 5 μM, effect relative to maximum response of the FSH standard)
Cc1cnccc1N1CCN(c2ccc(C(=O)NCCc3cnc[nH]3)cc2NC(=O)c2coc(C3CC3)n2)CC1 [Compound 457] | 1000 to 10000 nM | 
Cc1cncnc1N1CCN(c2ccc(C(=O)NCCCN3CCOC3=O)cc2NC(=O)c2coc(C3CC3)n2)CC1 [Compound 460] | 100 to 1000 nM | 
Cc1ccccc1N1CCN(c2ccc(C(=O)NCCCN3CCC(O)C3)cc2NC(=O)c2coc(C3CC3)n2)CC1 (stereo not drawn) [Compound 461] | 100 to 1000 nM | 
Cc1cncnc1N1CCN(c2ccc(C(=O)NCCc3cn(C)cn3)cc2NC(=O)c2coc(C3CC3)n2)CC1 [Compound 462] | 1000 to 10000 nM | 
Cc1ccc(C(=O)Nc2cc(C(=O)NCCCN3CCCC3=O)ccc2N2CCN(c3ncccc3C)CC2)o1 [Compound 463] | 100 to 1000 nM | 
Cc1ccc(C(=O)Nc2cc(C(=O)NCCc3cn(C)cn3)ccc2N2CCN(c3ncccc3C)CC2)o1 [Compound 464] | 1000 to 10000 nM | 
Cc1ccccc1N1CCN(c2ccc(C(=O)NCc3cccc(CN(C)C)n3)cc2NC(=O)c2coc(C3CC3)n2)CC1 [Compound 465] | 100 to 1000 nM | 
Cc1ccccc1N1CCN(c2ccc(C(=O)NCCCN3CCCC3=O)cc2NC(=O)c2nnc(C3CC3)o2)CC1 [Compound 466] | 1000 to 10000 nM | 
Cc1ccccc1N1CCN(c2ccc(C(=O)NCC(O)CN3CCCC3=O)cc2NC(=O)c2ccco2)CC1 (stereo not drawn) [Compound 467] | < 100 nM | 
Cc1ccccc1N1CCN(c2ccc(C(=O)NCCCN3CCNC3=O)cc2NC(=O)c2ccco2)CC1 [Compound 468] | < 100 nM | 
Cc1ccccc1N1CCN(c2ccc(C(=O)NCCCc3cccnc3)cc2NC(=O)c2ccco2)CC1 [Compound 469] | 100 to 1000 nM | 
Cc1ccccc1N1CCN(c2ccc(C(=O)NCCCN3CCCCC3=O)cc2NC(=O)c2ccco2)CC1 [Compound 470] | 100 to 1000 nM | 
Cc1ccccc1N1CCN(c2ccc(C(=O)NCc3cccc(CN4CCOCC4)c3)cc2NC(=O)c2ccco2)CC1 [Compound 471] | 100 to 1000 nM | 
Cc1ccccc1N1CCN(c2ccc(C(=O)NCCCCN3CCOCC3)cc2NC(=O)c2coc(C3CC3)n2)CC1 [Compound 472] | 100 to 1000 nM | 
CCN(CC)Cc1cccc(CNC(=O)c2ccc(N3CCN(c4ccccc4C)CC3)c(NC(=O)c3ccco3)c2)c1 [Compound 473] | 100 to 1000 nM | 
Cc1ccccc1N1CCN(c2ccc(C(=O)NCc3cccc(CN(C)C)n3)cc2NC(=O)c2ccco2)CC1 [Compound 474] | < 100 nM | 
Cc1ccc(C(=O)Nc2cc(C(=O)NCCCN3CCCC3=O)ccc2N2CCN(c3ccncc3C)CC2)o1 [Compound 475] | > 10000 nM | 
Cc1ccccc1N1CCN(c2ccc(C(=O)NCCCN3C(=O)[C@H]4C[C@@H]3C(O)C4O)cc2NC(=O)c2ccco2)CC1 (stereo partly drawn) [Compound 477] | < 100 nM | 
CCN(C)Cc1cccc(CNC(=O)c2ccc(N3CCN(c4ccccc4C)CC3)c(NC(=O)c3ccco3)c2)c1 [Compound 478] | < 100 nM | 
Cc1ccccc1N1CCN(c2ccc(C(=O)N[C@@H]3CCCC[C@@H](O)[C@H]3O)cc2NC(=O)c2coc(C3CC3)n2)CC1 [Compound 479] | 100 to 1000 nM | 
Cc1ccccc1N1CCN(c2ccc(C(=O)N[C@@H]3CCC[C@@H](O)[C@H]3O)cc2NC(=O)c2coc(C3CC3)n2)CC1 [Compound 480] | < 100 nM | 
Cc1ccccc1N1CCN(c2ccc(C(=O)Nc3cccc(N4CCCC4=O)c3)cc2NC(=O)c2coc(C3CC3)n2)CC1 [Compound 481] | 100 to 1000 nM | 

SMILES | EC50 | activation at 5 µM (1 h, 5 μM, effect relative to maximum response of the FSH standard)
Cc1ccccc1N1CCN(c2ccc(C(=O)Nc3cccc(N4CCCC4=O)c3)cc2NC(=O)c2ccco2)CC1 [Compound 482] | 1000 to 10000 nM | 
Cn1ccnc1N1CCN(c2ccc(C(=O)NCCCN3CCCC3=O)cc2NC(=O)c2coc(C3CC3)n2)CC1 [Compound 483] | 1000 to 10000 nM | 
COCc1cccc(CNC(=O)c2ccc(N3CCN(c4ccccc4C)CC3)c(NC(=O)c3ccco3)c2)c1 [Compound 484] | 100 to 1000 nM | 
Cc1ccccc1N1CCN(c2ccc(C(=O)NCc3cccc(C(=O)N(C)C)c3)cc2NC(=O)c2ccco2)CC1 [Compound 485] | 100 to 1000 nM | 
Cc1ccccc1N1CCN(c2ccc(C(=O)NC(C)(C)c3cccc(CN(C)C)c3)cc2NC(=O)c2coc(C3CC3)n2)CC1 [Compound 486] | 1000 to 10000 nM | 
Cc1ccccc1N1CCN(c2ccc(C(=O)NC(C)(C)c3cccc(CN(C)C)c3)cc2NC(=O)c2ccco2)CC1 [Compound 487] | 1000 to 10000 nM | 
Cc1ccccc1N1CCN(c2ccc(C(=O)NCCc3ccc(CNC(=O)OC(C)(C)C)cc3)cc2NC(=O)c2coc(C3CC3)n2)CC1 [Compound 489] | 1000 to 10000 nM | 
CCCNC(=O)NCCCNC(=O)c1ccc(N2CCN(c3ccccc3C)CC2)c(NC(=O)c2ccco2)c1 [Compound 490] | < 100 nM | 
CCCCNC(=O)NCCCNC(=O)c1ccc(N2CCN(c3ccccc3C)CC2)c(NC(=O)c2ccco2)c1 [Compound 491] | 100 to 1000 nM | 
CCNC(=O)NCCCNC(=O)c1ccc(N2CCN(c3ccccc3C)CC2)c(NC(=O)c2ccco2)c1 [Compound 492] | 100 to 1000 nM | 
Cc1ccccc1N1CCN(c2ccc(C(=O)NCCCNC(=O)NC(C)(C)C)cc2NC(=O)c2ccco2)CC1 [Compound 493] | 100 to 1000 nM | 
Cc1ccccc1N1CCN(c2ccc(C(=O)NCCCNC(=O)NC3CCCC3)cc2NC(=O)c2ccco2)CC1 [Compound 494] | 100 to 1000 nM | 
Cc1ccccc1N1CCN(c2ccc(C(=O)NCCCNC(=O)NC(C)C)cc2NC(=O)c2ccco2)CC1 [Compound 495] | 100 to 1000 nM | 
Cc1ccccc1N1CCN(c2ccc(C(=O)NCCCNC(=O)NC3CCCCC3)cc2NC(=O)c2ccco2)CC1 [Compound 496] | 100 to 1000 nM | 
Cc1ccccc1N1CCN(c2ccc(C(=O)NCCCNC(=O)NCC3CCCCC3)cc2NC(=O)c2ccco2)CC1 [Compound 497] | 1000 to 10000 nM | 
Cc1ccccc1N1CCN(c2ccc(C(=O)NCCc3ccc(CN)cc3)cc2NC(=O)c2coc(C3CC3)n2)CC1 [Compound 499] | 100 to 1000 nM | 
Cc1nc(CCCNC(=O)c2ccc(N3CCN(c4ccccc4C)CC3)c(NC(=O)c3coc(C4CC4)n3)c2)no1 [Compound 500] | 100 to 1000 nM | 
Cc1ccccc1N1CCN(c2ccc(C(=O)NCC(O)CN3CCCC3)cc2NC(=O)c2ccco2)CC1 (stereo not drawn) [Compound 501] | 100 to 1000 nM | 
Cc1ccccc1N1CCN(c2ccc(C(=O)NCCN(C)C3CCCC3)cc2NC(=O)c2ccco2)CC1 [Compound 502] | 100 to 1000 nM | 
Cc1ccccc1N1CCN(c2ccc(C(=O)NCCCN3CCCC3C(N)=O)cc2NC(=O)c2ccco2)CC1 (stereo not drawn) [Compound 503] | 100 to 1000 nM | 
Cc1ccccc1N1CCN(c2ccc(C(=O)NCCN(C)C3CCS(=O)(=O)C3)cc2NC(=O)c2ccco2)CC1 (stereo not drawn) [Compound 504] | 100 to 1000 nM | 
O=C(NCCCN1CCCC1=O)c1ccc(N2CCN(c3nccs3)CC2)c(NC(=O)c2coc(C3CC3)n2)c1 [Compound 505] | 1000 to 10000 nM | 

SMILES | EC50 | activation at 5 µM (1 h, 5 μM, effect relative to maximum response of the FSH standard)
COc1cccc(N2CCN(c3ccc(C(=O)NCCCN4CCCC4=O)cc3NC(=O)c3coc(C4CC4)n3)CC2)n1 [Compound 507] | 100 to 1000 nM | 
CCC(C)NC(=O)NCCCNC(=O)c1ccc(N2CCN(c3ccccc3C)CC2)c(NC(=O)c2ccco2)c1 (stereo not drawn) [Compound 511] | 100 to 1000 nM | 
C=CCNC(=O)NCCCNC(=O)c1ccc(N2CCN(c3ccccc3C)CC2)c(NC(=O)c2ccco2)c1 [Compound 512] | < 100 nM | 
Cn1ccnc1N1CCN(c2ccc(C(=O)NCCCN3CCOC3=O)cc2NC(=O)c2coc(C3CC3)n2)CC1 [Compound 513] | 1000 to 10000 nM | 
Cc1ccc(C(=O)Nc2cc(C(=O)NCCCN3CCOC3=O)ccc2N2CCN(c3nccn3C)CC2)o1 [Compound 514] |  | 48%
Cc1ccccc1N1CCN(c2ccc(C(=O)NCCCC(=O)NCCO)cc2NC(=O)c2coc(C3CC3)n2)CC1 [Compound 515] | < 100 nM | 
CCc1ccccc1N1CCN(c2ccc(C(=O)NCCCN3CCCC3=O)cc2NC(=O)c2coc(C3CC3)n2)CC1 [Compound 516] | 100 to 1000 nM | 
CCc1ccccc1N1CCN(c2ccc(C(=O)NCCCN3CCCC3=O)cc2NC(=O)c2ccc(C)o2)CC1 [Compound 517] | 100 to 1000 nM | 
Cc1ccc(C)c(N2CCN(c3ccc(C(=O)NCCCN4CCCC4=O)cc3NC(=O)c3ccc(C)o3)CC2)c1 [Compound 519] | 100 to 1000 nM | 
Cc1ccc(C(=O)Nc2cc(C(=O)NCCCN3CCCC3=O)ccc2N2CCN(c3cccc(C)c3C)CC2)o1 [Compound 521] | 100 to 1000 nM | 
Cc1ccc(C(=O)Nc2cc(C(=O)NCCCN3CCCC3=O)ccc2N2CCN(c3ccccc3C#N)CC2)o1 [Compound 522] | 1000 to 10000 nM | 
O=C(NCCCN1CCCC1=O)c1ccc(N2CCN(c3ccccc3C3CC3)CC2)c(NC(=O)c2coc(C3CC3)n2)c1 [Compound 524] | 100 to 1000 nM | 
N#Cc1ccccc1N1CCN(c2ccc(C(=O)NCCCN3CCCC3=O)cc2NC(=O)c2coc(C3CC3)n2)CC1 [Compound 525] | 100 to 1000 nM | 
Cc1ccccc1N1CCN(c2ccc(C(=O)NCc3cccc(C(F)(F)F)c3)cc2NC(=O)c2ccco2)CC1 [Compound 527] | 100 to 1000 nM | 
Cc1ccccc1N1CCN(c2ccc(C(=O)NCc3cccc(C(F)(F)F)c3)cc2NC(=O)c2coc(C3CC3)n2)CC1 [Compound 528] | 1000 to 10000 nM | 
COc1ccnc(N2CCN(c3ccc(C(=O)NCCCN4CCCC4=O)cc3NC(=O)c3coc(C4CC4)n3)CC2)c1 [Compound 530] | 1000 to 10000 nM | 
NC(=O)c1cccnc1N1CCN(c2ccc(C(=O)NCCCN3CCCC3=O)cc2NC(=O)c2coc(C3CC3)n2)CC1 [Compound 532] | > 10000 nM | 
Cc1cncc(N2CCN(c3ccc(C(=O)NCCCN4CCCC4=O)cc3NC(=O)c3coc(C4CC4)n3)CC2)n1 [Compound 533] | 1000 to 10000 nM | 
Cc1ccccc1N1CCN(c2ccc(C(=O)NCC[C@H]3COC(C)(C)O3)cc2NC(=O)c2coc(C3CC3)n2)CC1 [Compound 535] | 100 to 1000 nM | 
CCN(CC)Cc1cccc(CNC(=O)c2ccc(N3CCN(c4ccccc4C)CC3)c(NC(=O)c3coc(C4CC4)n3)c2)c1 [Compound 536] | 100 to 1000 nM | 
CCN(C)Cc1cccc(CNC(=O)c2ccc(N3CCN(c4ccccc4C)CC3)c(NC(=O)c3coc(C4CC4)n3)c2)c1 [Compound 537] | 100 to 1000 nM | 
Cc1ccccc1N1CCN(c2ccc(C(=O)NCc3cccc(CN4CCCC4)c3)cc2NC(=O)c2coc(C3CC3)n2)CC1 [Compound 538] | 100 to 1000 nM | 
